System: patients with unresectable HCC
Test: Open-label phase 3 study, safety and side-effect profile (CTCAE v4.0)
Description: Randomization was stratified according to region (Asia-Pacific or Western regions), macroscopic portal vein invasion and/or extrahepatic spread (yes or no), Eastern Cooperative Oncology Group performance status (0 or 1), and body weight (<60 kg or ≥60 kg).
Safety assessments included recording of vital signs, hematologic and biochemical laboratory testing, urinalysis, and electrocardiography.

COc1cc2nccc(Oc3ccc(NC(=O)NC4CC4)c(Cl)c3)c2cc1C(N)=O [Lenvatinib, 4-(3-chloro-4(cyclopropylaminocarbonyl)aminophenoxy)-7-methoxy-6-quinolinecarboxamide]
TEAE: Decreased appetite (8 mg per day): 33.1% | TEAE: Diarrhea (8 mg per day): 35.1% | TEAE: Hypertension (8 mg per day): 43.0% | TEAE: decreased weight (8 mg per day): 28.5% | Dose reduction/interruption: Abdominal pain (8 mg starting dose): 2 (1.3) n (%) | Dose reduction/interruption: Abdominal pain upper (8 mg starting dose): 2 (1.3) n (%) | Dose reduction/interruption: Alanine aminotransferase increased (8 mg starting dose): 2 (1.3) n (%) | Dose reduction/interruption: Anemia (8 mg starting dose): 2 (1.3) n (%) | Dose reduction/interruption: Ascites (8 mg starting dose): 3 (2.0) n (%) | Dose reduction/interruption: Aspartate aminotransferase increased (8 mg starting dose): 4 (2.6) n (%) | Dose reduction/interruption: Asthenia (8 mg starting dose): 3 (2.0) n (%) | Dose reduction/interruption: Blood and lymphatic system disorders (8 mg starting dose): 5 (3.3) n (%) | Dose reduction/interruption: Blood bilirubin increased (8 mg starting dose): 8 (5.3) n (%) | Dose reduction/interruption: Decreased appetite (8 mg starting dose): 15 (9.9) n (%) | Dose reduction/interruption: Dehydration (8 mg starting dose): 3 (2.0) n (%) | Dose reduction/interruption: Diarrhea (8 mg starting dose): 8 (5.3) n (%) | Dose reduction/interruption: Dyspnea (8 mg starting dose): 2 (1.3) n (%) | Dose reduction/interruption: Edema peripheral (8 mg starting dose): 2 (1.3) n (%) | Dose reduction/interruption: Esophageal varices hemorrhage (8 mg starting dose): 0 (0.0) n (%) | Dose reduction/interruption: Fatigue (8 mg starting dose): 5 (3.3) n (%) | Dose reduction/interruption: Gamma-glutamyltransferase increased (8 mg starting dose): 1 (0.7) n (%) | Dose reduction/interruption: Gastrointestinal disorders (8 mg starting dose): 22 (14.6) n (%) | Dose reduction/interruption: General disorders and administration site conditions (8 mg starting dose): 17 (11.3) n (%) | Dose reduction/interruption: Hepatic encephalopathy (8 mg starting dose): 4 (2.6) n (%) | Dose reduction/interruption: Hepatic function abnormal (8 mg starting dose): 0 (0.0) n (%) | Dose reduction/interruption: Hepatobiliary disorders (8 mg starting dose): 2 (1.3) n (%) | Dose reduction/interruption: Hypertension (8 mg starting dose): 3 (2.0) n (%) | Dose reduction/interruption: Hyponatremia (8 mg starting dose): 2 (1.3) n (%) | Dose reduction/interruption: Investigations (8 mg starting dose): 24 (15.9) n (%) | Dose reduction/interruption: Malaise (8 mg starting dose): 2 (1.3) n (%) | Dose reduction/interruption: Metabolism and nutrition disorders (8 mg starting dose): 21 (13.9) n (%) | Dose reduction/interruption: Musculoskeletal and connective tissue disorders (8 mg starting dose): 4 (2.6) n (%) | Dose reduction/interruption: Myalgia (8 mg starting dose): 1 (0.7) n (%) | Dose reduction/interruption: Nausea (8 mg starting dose): 2 (1.3) n (%) | Dose reduction/interruption: Nervous system disorders (8 mg starting dose): 7 (4.6) n (%) | Dose reduction/interruption: Neutropenia (8 mg starting dose): 0 (0.0) n (%) | Dose reduction/interruption: Neutrophil count decreased (8 mg starting dose): 4 (2.6) n (%) | Dose reduction/interruption: Palmar-plantar erythrodysesthesia syndrome (8 mg starting dose): 4 (2.6) n (%) | Dose reduction/interruption: Platelet count decreased (8 mg starting dose): 9 (6.0) n (%) | Dose reduction/interruption: Proteinuria (8 mg starting dose): 4 (2.6) n (%) | Dose reduction/interruption: Pyrexia (8 mg starting dose): 4 (2.6) n (%) | Dose reduction/interruption: Rash (8 mg starting dose): 0 (0.0) n (%) | Dose reduction/interruption: Rash maculo-papular (8 mg starting dose): 0 (0.0) n (%) | Dose reduction/interruption: Renal and urinary disorders (8 mg starting dose): 5 (3.3) n (%) | Dose reduction/interruption: Respiratory, thoracic and mediastinal disorders (8 mg starting dose): 4 (2.6) n (%) | Dose reduction/interruption: Skin and subcutaneous tissue disorders (8 mg starting dose): 5 (3.3) n (%) | Dose reduction/interruption: Stomatitis (8 mg starting dose): 2 (1.3) n (%) | Dose reduction/interruption: Thrombocytopenia (8 mg starting dose): 2 (1.3) n (%) | Dose reduction/interruption: Vascular disorders (8 mg starting dose): 3 (2.0) n (%) | Dose reduction/interruption: Vomiting (8 mg starting dose): 1 (0.7) n (%) | Dose reduction/interruption: Weight decreased (8 mg starting dose): 3 (2.0) n (%) | Dose reduction/interruption: White blood cell count decreased (8 mg starting dose): 3 (2.0) n (%) | Subjects with Any TEAEs (8 mg starting dose): 151 (100.0) n (%) | Subjects with any TEAEs leading to Dose Reduction or Interruption (8 mg starting dose): 81 (53.6) n (%) | TEAE: Abdominal pain (8 mg starting dose): 19 (12.6) n (%) | TEAE: Abdominal pain upper (8 mg starting dose): 21 (13.9) n (%) | TEAE: Alanine aminotransferase increased (8 mg starting dose): 17 (11.3) n (%) | TEAE: Alopecia (8 mg starting dose): 5 (3.3) n (%) | TEAE: Ascites (8 mg starting dose): 21 (13.9) n (%) | TEAE: Aspartate aminotransferase increased (8 mg starting dose): 21 (13.9) n (%) | TEAE: Asthenia (8 mg starting dose): 14 (9.3) n (%) | TEAE: Back pain (8 mg starting dose): 11 (7.3) n (%) | TEAE: Blood bilirubin increased (8 mg starting dose): 23 (15.2) n (%) | TEAE: Constipation (8 mg starting dose): 19 (12.6) n (%) | TEAE: Decreased appetite (8 mg starting dose): 50 (33.1) n (%) | TEAE: Diarrhea (8 mg starting dose): 53 (35.1) n (%) | TEAE: Dysphonia (8 mg starting dose): 28 (18.5) n (%) | TEAE: Edema peripheral (8 mg starting dose): 23 (15.2) n (%) | TEAE: Fatigue (8 mg starting dose): 42 (27.8) n (%) | TEAE: Hypertension (8 mg starting dose): 65 (43.0) n (%) | TEAE: Hypothyroidism (8 mg starting dose): 25 (16.6) n (%) | TEAE: Nausea (8 mg starting dose): 24 (15.9) n (%) | TEAE: Palmar-plantar erythrodysesthesia syndrome (8 mg starting dose): 35 (23.2) n (%) | TEAE: Platelet count decreased (8 mg starting dose): 26 (17.2) n (%) | TEAE: Proteinuria (8 mg starting dose): 37 (24.5) n (%) | TEAE: Pyrexia (8 mg starting dose): 24 (15.9) n (%) | TEAE: Rash (8 mg starting dose): 18 (11.9) n (%) | TEAE: Stomatitis (8 mg starting dose): 11 (7.3) n (%) | TEAE: Vomiting (8 mg starting dose): 22 (14.6) n (%) | TEAE: Weight decreased (8 mg starting dose): 43 (28.5) n (%) | TEAE: Decreased appetite (12 mg per day): 34.5% | TEAE: Diarrhea (12 mg per day): 40.3% | TEAE: Hypertension (12 mg per day): 41.8% | TEAE: decreased weight (12 mg per day): 32.0% | Dose reduction/interruption: Abdominal pain (12 mg starting dose): 4 (1.2) n (%) | Dose reduction/interruption: Abdominal pain upper (12 mg starting dose): 3 (0.9) n (%) | Dose reduction/interruption: Alanine aminotransferase increased (12 mg starting dose): 4 (1.2) n (%) | Dose reduction/interruption: Anemia (12 mg starting dose): 1 (0.3) n (%) | Dose reduction/interruption: Ascites (12 mg starting dose): 7 (2.2) n (%) | Dose reduction/interruption: Aspartate aminotransferase increased (12 mg starting dose): 5 (1.5) n (%) | Dose reduction/interruption: Asthenia (12 mg starting dose): 13 (4.0) n (%) | Dose reduction/interruption: Blood and lymphatic system disorders (12 mg starting dose): 11 (3.4) n (%) | Dose reduction/interruption: Blood bilirubin increased (12 mg starting dose): 12 (3.7) n (%) | Dose reduction/interruption: Decreased appetite (12 mg starting dose): 21 (6.5) n (%) | Dose reduction/interruption: Dehydration (12 mg starting dose): 3 (0.9) n (%) | Dose reduction/interruption: Diarrhea (12 mg starting dose): 28 (8.6) n (%) | Dose reduction/interruption: Dyspnea (12 mg starting dose): 6 (1.8) n (%) | Dose reduction/interruption: Edema peripheral (12 mg starting dose): 4 (1.2) n (%) | Dose reduction/interruption: Esophageal varices hemorrhage (12 mg starting dose): 5 (1.5) n (%) | Dose reduction/interruption: Fatigue (12 mg starting dose): 22 (6.8) n (%) | Dose reduction/interruption: Gamma-glutamyltransferase increased (12 mg starting dose): 6 (1.8) n (%) | Dose reduction/interruption: Gastrointestinal disorders (12 mg starting dose): 65 (20.0) n (%) | Dose reduction/interruption: General disorders and administration site conditions (12 mg starting dose): 50 (15.4) n (%) | Dose reduction/interruption: Hepatic encephalopathy (12 mg starting dose): 16 (4.9) n (%) | Dose reduction/interruption: Hepatic function abnormal (12 mg starting dose): 2 (0.6) n (%) | Dose reduction/interruption: Hepatobiliary disorders (12 mg starting dose): 25 (7.7) n (%) | Dose reduction/interruption: Hypertension (12 mg starting dose): 26 (8.0) n (%) | Dose reduction/interruption: Hyponatremia (12 mg starting dose): 3 (0.9) n (%) | Dose reduction/interruption: Investigations (12 mg starting dose): 57 (17.5) n (%) | Dose reduction/interruption: Malaise (12 mg starting dose): 3 (0.9) n (%) | Dose reduction/interruption: Metabolism and nutrition disorders (12 mg starting dose): 31 (9.5) n (%) | Dose reduction/interruption: Musculoskeletal and connective tissue disorders (12 mg starting dose): 14 (4.3) n (%) | Dose reduction/interruption: Myalgia (12 mg starting dose): 4 (1.2) n (%) | Dose reduction/interruption: Nausea (12 mg starting dose): 14 (4.3) n (%) | Dose reduction/interruption: Nervous system disorders (12 mg starting dose): 28 (8.6) n (%) | Dose reduction/interruption: Neutropenia (12 mg starting dose): 6 (1.8) n (%) | Dose reduction/interruption: Neutrophil count decreased (12 mg starting dose): 7 (2.2) n (%) | Dose reduction/interruption: Palmar-plantar erythrodysesthesia syndrome (12 mg starting dose): 21 (6.5) n (%) | Dose reduction/interruption: Platelet count decreased (12 mg starting dose): 13 (4.0) n (%) | Dose reduction/interruption: Proteinuria (12 mg starting dose): 29 (8.9) n (%) | Dose reduction/interruption: Pyrexia (12 mg starting dose): 8 (2.5) n (%) | Dose reduction/interruption: Rash (12 mg starting dose): 2 (0.6) n (%) | Dose reduction/interruption: Rash maculo-papular (12 mg starting dose): 0 (0.0) n (%) | Dose reduction/interruption: Renal and urinary disorders (12 mg starting dose): 35 (10.8) n (%) | Dose reduction/interruption: Respiratory, thoracic and mediastinal disorders (12 mg starting dose): 12 (3.7) n (%) | Dose reduction/interruption: Skin and subcutaneous tissue disorders (12 mg starting dose): 23 (7.1) n (%) | Dose reduction/interruption: Stomatitis (12 mg starting dose): 4 (1.2) n (%) | Dose reduction/interruption: Thrombocytopenia (12 mg starting dose): 4 (1.2) n (%) | Dose reduction/interruption: Vascular disorders (12 mg starting dose): 30 (9.2) n (%) | Dose reduction/interruption: Vomiting (12 mg starting dose): 11 (3.4) n (%) | Dose reduction/interruption: Weight decreased (12 mg starting dose): 17 (5.2) n (%) | Dose reduction/interruption: White blood cell count decreased (12 mg starting dose): 3 (0.9) n (%) | Subjects with Any TEAEs (12 mg starting dose): 319 (98.2) n (%) | Subjects with any TEAEs leading to Dose Reduction or Interruption (12 mg starting dose): 213 (65.5) n (%) | TEAE: Abdominal pain (12 mg starting dose): 62 (19.1) n (%) | TEAE: Abdominal pain upper (12 mg starting dose): 37 (11.4) n (%) | TEAE: Alanine aminotransferase increased (12 mg starting dose): 36 (11.1) n (%)

— patent publication US12226409B2, “Treatment of hepatocellular carcinoma” (Eisai R&D Management Co., Ltd., priority 2017, dated 2025)
